Experiments:
[1] = system: Musca domestica; test: Test Example 1: Musca domestica filter paper/sucrose bait test; format: in vivo; details: 500 ppm test solution, 0.7 ml on filter paper with sucrose bait, 10 female imagoes, after 24 hours, read-out: pest death rate
Protocol: (§1) Formulations of some compounds of the present invention were obtained according to Formulation Example 5. The formulation was diluted with water to prepare a test solution having 500 ppm of the active ingredient.
A filter paper having a diameter of 5.5 cm was spread on the bottom of a polyethylene cup having a diameter of 5.5 cm and 0.7 ml of the test solution was added dropwise onto the filter paper. As a bait, 30 mg of sucrose was uniformly placed on the filter paper. Into the polyethylene cup, 10 female imagoes of Musca domestica were released and the cup was sealed with a lid. After 24 hours, the number of surviving or dead Musca domestica was counted and a pest death rate was calculated according to the following equation. Pest death rate(%)=(Number of dead imagoes/Number of tested imagoes)×100

[2] = system: Spodoptela litura; test: Test Example 4: Spodoptela litura larvae on treated artificial diet; format: in vivo; details: 144 h; 500 ppm test solution, 2 mL on artificial diet Insecta LF; 5 fourth instar larvae; after 6 days; read-out: pest death rate
Protocol: as §1
A filter paper having a diameter of 5.5 cm was spread on the bottom of a polyethylene cup having a diameter of 5.5 cm. Insecta LF (manufactured by NOSAN CORPORATION), an artificial diet, was sliced to 6 mm in thickness, cut into half, and then placed on the filter paper. Then, 2 mL of the test solution was poured into the polyethylene cup. After the test solution was air-dried, 5 fourth instar larvae of Spodoptela litura were released into the polyethylene cup and the cup was sealed with a lid. After 6 days, the number of surviving or dead Spodoptela litura was counted and a pest death rate was calculated according to the following equation. Pest death rate(%)=(Number of dead larvae/Number of tested larvae)×100

SMILES | pest or weed control at 500 ppm [1] | pest or weed control at 500 ppm [2]
CC(=O)NN(C(=O)OC(C)(C)C)c1cccc(C2=NOC(c3cc(Cl)cc(Cl)c3)(C(F)(F)F)C2)c1 (stereo not shown) [(1)] | 100% | ≥ 80%
CC(=O)NN(C)c1cccc(C2=NOC(c3cc(Cl)cc(Cl)c3)(C(F)(F)F)C2)c1 (stereo not shown) [(5)] |  | ≥ 80%
O=C(CC(F)(F)F)NNc1cccc(C2=NOC(c3cc(Cl)cc(Cl)c3)(C(F)(F)F)C2)c1 (stereo not shown) [(7)] | 100% | 
Cc1ccc(C2=NOC(c3cc(Cl)cc(Cl)c3)(C(F)(F)F)C2)cc1NNC(=O)CC(F)(F)F (stereo not shown) [(8)] | 100% | 
O=C(CC(F)(F)F)NNc1cc(C2=NOC(c3cc(Cl)cc(Cl)c3)(C(F)(F)F)C2)ccc1F (stereo not shown) [(10)] | 100% | 
O=C(CC(F)(F)F)NNc1cc(C2=NOC(c3cc(Cl)cc(Cl)c3)(C(F)(F)F)C2)ccc1Cl (stereo not shown) [(11)] | 100% | 
CC(C)CC(=O)NNc1cc(C2=NOC(c3cc(Cl)cc(Cl)c3)(C(F)(F)F)C2)ccc1Cl (stereo not shown) [(15)] | 100% | 
CC(C)(C)C(=O)NNc1cc(C2=NOC(c3cc(Cl)cc(Cl)c3)(C(F)(F)F)C2)ccc1Cl (stereo not shown) [(23)] | 100% | 
O=C(Cc1ccccc1)NNc1cc(C2=NOC(c3cc(Cl)cc(Cl)c3)(C(F)(F)F)C2)ccc1Cl (stereo not shown) [(26)] |  | ≥ 80%
O=C(CCCBr)NNc1cc(C2=NOC(c3cc(Cl)cc(Cl)c3)(C(F)(F)F)C2)ccc1Cl (stereo not shown) [(34)] |  | ≥ 80%
O=C(CCCC(F)(F)F)NNc1cc(C2=NOC(c3cc(Cl)cc(Cl)c3)(C(F)(F)F)C2)ccc1Cl (stereo not shown) [(36)] | 100% | ≥ 80%
COCC(=O)NNc1cc(C2=NOC(c3cc(Cl)cc(Cl)c3)(C(F)(F)F)C2)ccc1Cl (stereo not shown) [(38)] | 100% | ≥ 80%
CC(C)(CCl)C(=O)NNc1cc(C2=NOC(c3cc(Cl)cc(Cl)c3)(C(F)(F)F)C2)ccc1Cl (stereo not shown) [(40)] | 100% | ≥ 80%
CC(=O)N(NC(=O)CCC(F)(F)F)c1cc(C2=NOC(c3cc(Cl)cc(Cl)c3)(C(F)(F)F)C2)ccc1Cl (stereo not shown) [(53)] |  | ≥ 80%
COCC(=O)NN(C(=O)c1ccccc1)c1cc(C2=NOC(c3cc(Cl)cc(Cl)c3)(C(F)(F)F)C2)ccc1Cl (stereo not shown) [(57)] |  | ≥ 80%
